“And” between values parts separate entries of the source, which are not always exact repeats. Equal values may be shown once. Read-outs that look alike come from different tables or passages of the source.
Key:
Y1R [1] = biological target: Y1R; parameters: method as in ref 24,25,27,30-38 (per cell); conditions: different expression systems, sodium-containing or sodium-free buffers, ref 24,25,27,30-38 (per cell); cited from earlier work
Nluc-Y1R(Y192) [2] = biological target: T1, Nluc-Y1R(Y192) (Homo sapiens, UniProt P25929); test: BRET competition binding with fluorescent ligand 1; conditions: competition with 1 (c = 0.5 nM, Kd = 0.24 nM), intact HEK293T cells, mean ± SEM
T1 sequence (P25929 1-384): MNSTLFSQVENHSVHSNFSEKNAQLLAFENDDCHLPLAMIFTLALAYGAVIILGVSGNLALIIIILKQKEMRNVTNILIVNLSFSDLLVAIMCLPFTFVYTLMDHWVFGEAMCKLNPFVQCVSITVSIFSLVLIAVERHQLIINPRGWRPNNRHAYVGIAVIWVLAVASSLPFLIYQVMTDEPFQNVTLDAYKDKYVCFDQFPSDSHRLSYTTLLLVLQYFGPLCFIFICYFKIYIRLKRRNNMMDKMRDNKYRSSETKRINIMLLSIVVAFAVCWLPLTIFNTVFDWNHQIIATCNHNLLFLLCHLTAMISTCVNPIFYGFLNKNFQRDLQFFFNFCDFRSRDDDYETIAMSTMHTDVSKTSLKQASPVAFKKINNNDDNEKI
Procedure: (§1) BRET binding experiments were essentially performed as described[18] with the following minor modifications: 1 day prior to the experiment, HEK293T cells stably expressing the respective Nluc-receptor fusion construct were detached from the cell culture dish by trypsinization, centrifuged (500g, 5 min), and resuspended in L-15 with 5% FCS and 10 mM HEPES (pH 7.4). […] Subsequently, 10 μL of assay buffer containing the investigated fluorescent ligand was added to all wells. After an incubation period of 60 min at 27 °C, 10 μL of the Nluc substrate furimazine (prediluted 1:1000 before use) was added and after an equilibration time of 5 min inside the plate reader (prewarmed to 27 °C), the measurement was started.
(§2) A positive control containing only fluorescent ligand and no competitor (100% value), as well as a negative control (buffer, 0% value), was included in every experiment.
(§3) For competition binding experiments, the data were normalized to the BRET ratio obtained for the negative control (buffer, 0% value) and the BRET ratio obtained for wells containing fluorescent ligand, but no competitor (100% value). […] The obtained pIC50 values were subsequently transformed into pKi values by means of the Cheng–Prusoff equation (logarithmic form),[80] for which means and SEMs were calculated.

Nluc-Y1R(Q291) [3] = biological target: T2, Nluc-Y1R(Q291) (Homo sapiens, UniProt P25929); test: BRET competition binding with fluorescent ligand 1; conditions: competition with 1 (c = 0.5 nM, Kd = 0.29 nM), HEK293T cells; mean ± SEM
T2 sequence (P25929 1-384): T1 sequence (P25929 1-384)
Procedure: as §1, §2, §3

M1R = conditions: cited from earlier work
Nluc-M1R(G176) [4] = biological target: T3, Nluc-M1R(G176) (Homo sapiens, UniProt P11229); test: biochemical; type: binding
T3 sequence (P11229 1-460): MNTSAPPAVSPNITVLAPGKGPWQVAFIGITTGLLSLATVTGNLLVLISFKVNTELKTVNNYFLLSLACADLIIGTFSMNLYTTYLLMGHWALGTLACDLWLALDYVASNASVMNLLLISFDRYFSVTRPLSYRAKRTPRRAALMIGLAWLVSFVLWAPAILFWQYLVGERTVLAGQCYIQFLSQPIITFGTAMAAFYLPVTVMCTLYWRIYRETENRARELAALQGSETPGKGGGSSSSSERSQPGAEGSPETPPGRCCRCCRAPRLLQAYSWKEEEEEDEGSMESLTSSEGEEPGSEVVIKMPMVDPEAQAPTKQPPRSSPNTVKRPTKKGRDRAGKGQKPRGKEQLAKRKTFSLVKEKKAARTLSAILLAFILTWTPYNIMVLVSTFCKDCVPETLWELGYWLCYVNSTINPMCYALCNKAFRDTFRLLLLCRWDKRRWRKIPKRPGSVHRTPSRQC
Procedure: BRET binding experiments were essentially performed as described[18] with the following minor modifications: 1 day prior to the experiment, HEK293T cells stably expressing the respective Nluc-receptor fusion construct were detached from the cell culture dish by trypsinization, centrifuged (500g, 5 min), and resuspended in L-15 with 5% FCS and 10 mM HEPES (pH 7.4). […] Subsequently, 10 μL of assay buffer containing the investigated fluorescent ligand was added to all wells.
as §2, §3

AT1R = biological target: AT1R; parameters: method as in ref 41,44,46-49 (per cell); conditions: different expression systems, ref 41,44,46-49 (per cell); cited from earlier work
Nluc-AT1R(S186) = biological target: T4, Nluc-AT1R(S186) (Homo sapiens, UniProt P30556); test: BRET competition binding with fluorescent ligand 3
T4 sequence (P30556 1-359): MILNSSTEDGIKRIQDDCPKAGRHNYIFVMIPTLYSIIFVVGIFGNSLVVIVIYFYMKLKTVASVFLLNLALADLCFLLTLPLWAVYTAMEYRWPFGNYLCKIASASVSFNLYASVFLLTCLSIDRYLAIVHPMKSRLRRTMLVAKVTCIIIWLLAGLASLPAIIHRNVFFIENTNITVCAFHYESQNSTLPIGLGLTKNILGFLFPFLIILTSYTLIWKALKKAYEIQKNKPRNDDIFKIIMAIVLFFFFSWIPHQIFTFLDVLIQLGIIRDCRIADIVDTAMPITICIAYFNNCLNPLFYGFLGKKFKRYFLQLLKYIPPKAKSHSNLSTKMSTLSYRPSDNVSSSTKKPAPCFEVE
Procedure: as §1
A positive control containing only fluorescent ligand and no competitor (100% value), as well as a negative control (buffer, 0% value), was included in every experiment. […]
as §3

Nluc-Y1R(Nterm) = biological target: T5, Nluc-Y1R(Nterm) (Homo sapiens, UniProt P25929); test: BRET saturation binding at intact HEK293T cells
T5 construct: expressed in transfected cells; host or cells: HEK293T, stably transfected (pcDNA3.1)
T5 sequence (P25929 1-384): T1 sequence (P25929 1-384)
Procedure: as §1
(§4) For BRET experiments, the “raw BRET ratio” was calculated by dividing the emission detected through the 610 LP filter (acceptor) by the emission detected through the 460 BP filter (donor). A baseline correction was performed for all values by subtracting the BRET ratio of a buffer control, yielding “corrected BRET ratios”. […] The obtained Kd values were transformed into pKd values, for which means and SEMs were calculated.

Nluc-Y1R(Y192) [5] = biological target: T1, Nluc-Y1R(Y192); test: Kinetic BRET binding (association and dissociation); conditions: 1 c = 0.5 nM
Nluc-Y1R(Q291) [6] = biological target: T2, Nluc-Y1R(Q291); test: BRET saturation binding at intact HEK293T cells
Procedure: as §1, §4

wild-type Y1R = biological target: wild-type Y1R; parameters: method as in PMID 35263541; conditions: cited from earlier work
Nluc-Y1R(Y192) [7] = biological target: T1, Nluc-Y1R(Y192); test: BRET saturation binding at intact HEK293T cells
Procedure: as §1, §4

Nluc-Y1R(Δ1–31) = biological target: T6, Nluc-Y1R(Δ1–31) (Homo sapiens, UniProt P25929); test: BRET saturation binding at intact HEK293T cells; conditions: mean ± SEM, read-out: pKd (BRET) (converted)
T6 construct: fused Nluc to Asp32 of the Y1R via a short linker; expressed in transfected cells; host or cells: HEK293T, stably transfected (pcDNA3.1)
T6 sequence (P25929 32-384): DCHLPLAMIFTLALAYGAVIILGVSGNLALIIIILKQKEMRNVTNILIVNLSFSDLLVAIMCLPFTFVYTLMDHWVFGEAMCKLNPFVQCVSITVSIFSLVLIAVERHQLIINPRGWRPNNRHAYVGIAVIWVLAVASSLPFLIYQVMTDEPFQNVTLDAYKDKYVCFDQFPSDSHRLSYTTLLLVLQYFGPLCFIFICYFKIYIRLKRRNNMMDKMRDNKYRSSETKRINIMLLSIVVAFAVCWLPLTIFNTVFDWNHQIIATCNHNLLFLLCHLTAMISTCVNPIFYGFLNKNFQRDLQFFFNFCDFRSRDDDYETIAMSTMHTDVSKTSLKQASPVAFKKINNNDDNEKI
Procedure: as §1, §4

Nluc-M1R(Nterm) = biological target: T7, Nluc-M1R(Nterm) (Homo sapiens, UniProt P11229); test: BRET saturation binding at intact HEK293T cells; conditions: mean ± SEM, read-out: pKd (BRET) (converted)
T7 construct: expressed in transfected cells; host or cells: HEK293T, stably transfected (pcDNA3.1)
T7 sequence (P11229 1-460): T3 sequence (P11229 1-460)
Procedure: as §1, §4

Nluc-M1R(G176) [8] = biological target: T3, Nluc-M1R(G176); test: BRET saturation binding at intact HEK293T cells
Procedure: as §1, §4

Nluc-M1R(G176) [9] = biological target: T3, Nluc-M1R(G176); test: Kinetic BRET binding (association and dissociation)
NTS1R = biological target: NTS1R; parameters: method as in ref 42,44,50-53 (per cell); conditions: different expression systems, ref 42,44,50-53 (per cell); cited from earlier work
Nluc-NTS1R(T227) = test: BRET competition binding with fluorescent ligand 2; parameters: species or system human; conditions: competition with 2 (c = 5 nM, Kd = 4.82 nM), intact HEK293T cells, mean ± SEM
Chain of Nluc-NTS1R(T227) (P30989 1-227 limits assumed): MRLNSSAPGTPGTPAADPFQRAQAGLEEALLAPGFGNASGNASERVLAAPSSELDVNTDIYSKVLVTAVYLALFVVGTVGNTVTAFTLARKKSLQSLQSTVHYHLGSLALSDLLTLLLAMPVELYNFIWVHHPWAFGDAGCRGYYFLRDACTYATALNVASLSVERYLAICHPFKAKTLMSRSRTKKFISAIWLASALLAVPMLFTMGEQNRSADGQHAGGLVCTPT
Chain of Nluc-NTS1R(T227) (P30989 228-418 limits assumed): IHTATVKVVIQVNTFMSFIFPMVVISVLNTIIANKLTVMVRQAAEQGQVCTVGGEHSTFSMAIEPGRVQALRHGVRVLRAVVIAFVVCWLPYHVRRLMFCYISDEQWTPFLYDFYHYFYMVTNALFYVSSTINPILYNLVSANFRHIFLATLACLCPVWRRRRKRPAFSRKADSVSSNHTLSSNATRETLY
Procedure: as §1, §2, §3

Nluc-NTS1R(T227) (human) [10] = biological target: Nluc-NTS1R(T227) (human) (UniProt P30989); test: FRET or BRET; BRET saturation binding of the fluorescent ligand at intact HEK293T cells stably expressing the Nluc-receptor construct; 60 min, 27 °C; L-15, 10 mM HEPES pH 7.4, 2% BSA; nonspecific binding with 100-fold excess of SR142948 or candesartan
Chain of Nluc-NTS1R(T227) (human) (P30989 whole entry): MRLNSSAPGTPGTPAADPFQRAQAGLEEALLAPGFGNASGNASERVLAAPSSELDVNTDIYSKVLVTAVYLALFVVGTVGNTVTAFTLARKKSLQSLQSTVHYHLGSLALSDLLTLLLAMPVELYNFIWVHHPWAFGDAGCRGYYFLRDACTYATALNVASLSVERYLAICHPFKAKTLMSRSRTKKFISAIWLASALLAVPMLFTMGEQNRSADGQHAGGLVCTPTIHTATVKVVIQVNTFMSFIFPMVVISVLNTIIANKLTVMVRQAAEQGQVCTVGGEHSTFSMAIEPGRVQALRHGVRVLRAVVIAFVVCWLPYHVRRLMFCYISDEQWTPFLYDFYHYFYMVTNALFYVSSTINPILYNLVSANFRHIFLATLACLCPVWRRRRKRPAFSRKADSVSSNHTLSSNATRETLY

Nluc-NTS1R(T227) (human) [11] = biological target: Nluc-NTS1R(T227) (human) (UniProt P30989); test: FRET or BRET; kinetic BRET binding (association then dissociation) at intact HEK293T cells, 27 °C; fluorescent ligand 10 nM; dissociation started with SR142948 or candesartan (2.5 μM)
Y1R [12] = biological target: Y1R; parameters: method as in PMID 35263541; conditions: 1 as the fluorescent probe; cited from earlier work
[13] = intact HEK293T cells, mean ± SEM
[14] = intact HEK293T cells, mean ± SEM, read-out: pKd (BRET) (converted)
[15] = value used for Cheng–Prusoff, read-out: Kd

NC(=O)NCc1ccc(CNC(=O)[C@@H](CCCN=C(N)N)NC(=O)C(c2ccccc2)c2ccccc2)cc1 [BIBO3304]
reference values (literature) (Y1R [1]): 8.76–9.60[27],[30],[31]

NC(N)=NCCC[C@@H](NC(=O)C(c1ccccc1)c1ccccc1)C(=O)NCc1ccc(O)cc1 [BIBP3226]
reference values (literature) (Y1R [1]): 8.14–9.00[25],[27],[30],[33],[34]

CC(C)c1ccccc1S(=O)(=O)c1cc(N)c2ncccc2c1[N+](=O)[O-] [PD160170]
reference values (literature) (Y1R [1]): 7.30 and 7.32
pKi (BRET) (Nluc-Y1R(Y192) [2]): 7.45 ± 0.05

CCC(=O)NCCNC(=O)N=C(N)NCCC[C@@H](NC(=O)C(c1ccccc1)c1ccccc1)C(=O)NCc1ccc(O)cc1 [UR-MK299]
pKi (BRET, Nluc-Y1R(Q291)) (Nluc-Y1R(Q291) [3]): 10.06 ± 0.07
reference values (literature) (Y1R [1]): 10.11[25]
pKi (BRET) (Nluc-Y1R(Y192) [2]): 10.20 ± 0.06

C=CC[N@@+]12CC[C@@]34c5ccccc5N5/C=C6/[C@H]7C[C@H]8[C@@]9(CC[N@@+]8(CC=C)C/C7=C/CO)c7ccccc7N(/C=C(/[C@@H](C[C@@H]31)/C(=C\CO)C2)[C@H]54)[C@@H]69 [alcuronium, Alcuronium]
reference values (literature) (M1R): 5.01,[57] 5.25[55]
displacement of fluorescent ligand 4 (Nluc-M1R(G176) [4]; Nluc-M1R(G176)): displace the dualsteric ligand 4 completely

CCOc1nc2cccc(C(=O)O)c2n1Cc1ccc(-c2ccccc2-c2nnn[nH]2)cc1 [candesartan, Candesartan]
reference values (literature) (AT1R): 8.46–10.28[41],[44],[46]−[48]
Ki (Nluc-AT1R(S186)): 1.51 nM

CCC(=O)NCCNC(=O)N=C(N)NCCC[C@@H](NC(=O)[C@@H](c1ccccc1)c1cccc(OCCCC[n+]2c(C)cc(/C=C/C=C/c3ccc(N(C)C)cc3)cc2C)c1)C(=O)NCc1ccc(O)cc1 [compound 1]
specific signal in BRET saturation binding (Nluc-Y1R(Nterm)): no specific signal was detectable
time of association (Nluc-Y1R(Y192) [5]): ≤ 60 min
koff (Nluc-Y1R(Y192) [5]; [13]): 6.67e-05 s⁻¹
kon (Nluc-Y1R(Y192) [5]; [13]): 2.38e+06 M⁻¹ s⁻¹
fraction still bound after initiation of dissociation (Nluc-Y1R(Y192) [5]; after 4 h, dissociation by BIBO3304): ≈ 40%
Kd (Nluc-Y1R(Y192) [5]; kinetically derived, mean ± SEM, read-out: pKd kinetic (converted)): 0.024 nM
Kd (Nluc-Y1R(Q291) [6]; [14]): 0.288 nM
Kd (Nluc-Y1R(Q291) [6]; [15]): 0.29 nM
pKi (radioligand competition binding) (wild-type Y1R): 9.95
Kd (Nluc-Y1R(Y192) [7]; [14]): 0.24 nM
Kd (Nluc-Y1R(Y192) [7]; [15]): 0.24 nM
Kd (Nluc-Y1R(Δ1–31)): 2.88 nM

Cc1cc(/C=C/C=C/c2ccc(N(C)C)cc2)cc(C)[n+]1CCNC(=O)CCc1cn(CCCCC2CCN(CC(=O)N3c4ccccc4NC(=O)c4ccccc43)CC2)cn1 [compound 4]
Kd (Nluc-M1R(Nterm)): 6.03 nM
Kd (Nluc-M1R(G176) [8]; [14]): 2.24 nM
Kd (Nluc-M1R(G176) [8]; [15]): 2.26 nM
koff (Nluc-M1R(G176) [9]): 0.00297 s⁻¹
kon (Nluc-M1R(G176) [9]): 367000 M⁻¹ s⁻¹
Kd (Nluc-M1R(G176) [9]; kinetically derived, Nluc-M1R(G176), 4 c = 5 nM, mean ± SEM, read-out: pKd kinetic (converted)): 9.12 nM

C[N+](C)(C)CC#CCOC1=NOCC1 [iperoxo]
reference values (literature) (M1R): 6.46[56]
pKi (BRET) (Nluc-M1R(G176) [4]): 7.00 ± 0.07

CCCCc1nc(Cl)c(CO)n1Cc1ccc(-c2ccccc2-c2nn[nH]n2)cc1 [losartan]
reference values (literature) (AT1R): 7.23–8.00[41],[44],[46],[48],[49]

O=C1CCCN1CC#CCN1CCCC1 [oxotremorine]
reference values (literature) (M1R): 5.48–5.86[55],[57],[59]
Ki (Nluc-M1R(G176) [4]): 1000 nM

BMS193885
reference values (literature) (Y1R [1]): 7.66–8.48[27],[35],[36]
pKi (BRET) (Nluc-Y1R(Y192) [2]): 8.23 ± 0.01

Neurotensin(8–13) [NT(8–13)]
reference values (literature) (NTS1R): 8.27–9.85[42],[44],[50]−[52]

SR142948
pKi (BRET) (Nluc-NTS1R(T227)): 7.93 ± 0.12
reference values (literature) (NTS1R): 8.05–8.99[42],[44],[50],[53]

UR-AP178 (peptide)
pKd (Nluc-NTS1R(T227) (human) [10]): 8.32
koff (Nluc-NTS1R(T227) (human) [11]): 0.0138 s⁻¹
kon (Nluc-NTS1R(T227) (human) [11]): 2e+06 M⁻¹ s⁻¹
pKd kinetic (Nluc-NTS1R(T227) (human) [11]): 8.16

angiotensin II
reference values (literature) (AT1R): 7.61–9.62[44],[46]−[49]
time until pIC50 value stabilized (Nluc-AT1R(S186); kinetic BRET competition binding with 3 at Nluc-AT1R(S186)): ≤ 45 min

porcine neuropeptide Y [pNPY]
reference values (literature) (Y1R [1]): 7.58–9.75[24],[25],[27],[30]−[32]
pKi (flow cytometry-based competition binding) (Y1R [12]): 7.58

From publication PMC9667534, “Insertion of Nanoluc into the Extracellular Loops as a Complementary Method To Establish BRET-Based Binding Assays for GPCRs” (ACS Pharmacology & Translational Science, 2022)
